# Source: ChEMBL document CHEMBL1201862, “PubChem BioAssay data set” (2004)
# Activity calls are given as the source filed them.
# What was measured:
# [1] = molecular target: T1, Delta-type opioid receptor (Homo sapiens, UniProt P41143); assay: HTS Image-Based Screen for Agonists of the DOR Receptor. [Related pubchem assays (depositor defined):AID1777, AID1786, AID2133]; format: functional
# [2] = molecular target: T2, Kappa-type opioid receptor (Homo sapiens, UniProt P41145); format: functional
# [3] = molecular target: T2, Kappa-type opioid receptor; format: functional; remark: listed apart in the source
# Beta-galactosidase = Beta-galactosidase (Escherichia coli, UniProt Q8VNN2); format: functional
# [4] = molecular target: T1, Delta-type opioid receptor; assay: HTS Image-Based Screen for Antagonists of the DOR Receptor. [Related pubchem assays (depositor defined):AID1777, AID1785, AID1786, AID2133]; format: functional
# Mu-type opioid receptor = Mu-type opioid receptor (Homo sapiens, UniProt P35372); assay: HTS Image-Based Screen for Agonists of the MOR Receptor. [Related pubchem assays (depositor defined):AID1777, AID1785, AID1786, AID2133]; format: functional;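 further: imaging of beta-arrestin GFP recruitment into spots after receptor activation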
# Cytochrome P450 3A4 = Cytochrome P450 3A4 (Homo sapiens, UniProt P08684);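 further: CYP3A4 tested as one member of a cytochrome P450 panel screen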
# [5] = molecular target: Intestinal-type alkaline phosphatase (Mus musculus, UniProt P24822); assay: PubChem AID 488785; format: functional
# Large T antigen = Large T antigen (Simian virus 40, UniProt P03070); format: functional, Betapolyomavirus macacae;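 further: Confirmatory-stage PubChem screen for compounds that inhibit SV40 T antigen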
# [6] = molecular target: T3, Alkaline phosphatase, tissue-nonspecific isozyme (Homo sapiens, UniProt P05186); assay: TNAP enzyme inhibition by screening hits, dose response, selectivity assay for mouse IAP inhibitor project, biochemical, human TNAP, uHTS hits (AID 488906); format: functional
# T3 sequence (P05186 whole entry): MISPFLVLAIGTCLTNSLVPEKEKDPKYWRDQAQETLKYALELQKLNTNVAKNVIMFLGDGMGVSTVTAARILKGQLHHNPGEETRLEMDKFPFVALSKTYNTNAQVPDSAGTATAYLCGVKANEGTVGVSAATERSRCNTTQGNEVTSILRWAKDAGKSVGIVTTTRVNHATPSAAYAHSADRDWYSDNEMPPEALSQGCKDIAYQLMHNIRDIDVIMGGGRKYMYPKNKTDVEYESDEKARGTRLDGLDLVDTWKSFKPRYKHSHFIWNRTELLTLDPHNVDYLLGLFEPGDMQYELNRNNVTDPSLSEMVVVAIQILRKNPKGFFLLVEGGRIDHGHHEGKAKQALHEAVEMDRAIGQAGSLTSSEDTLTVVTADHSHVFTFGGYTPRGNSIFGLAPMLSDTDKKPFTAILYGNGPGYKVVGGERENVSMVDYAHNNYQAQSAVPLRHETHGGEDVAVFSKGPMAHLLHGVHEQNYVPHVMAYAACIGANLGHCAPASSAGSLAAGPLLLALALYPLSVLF
# [7] = molecular target: T4, Histone-lysine N-methyltransferase NSD2 (Homo sapiens, UniProt O96028); format: biochemical
# T4 sequence (O96028 whole entry): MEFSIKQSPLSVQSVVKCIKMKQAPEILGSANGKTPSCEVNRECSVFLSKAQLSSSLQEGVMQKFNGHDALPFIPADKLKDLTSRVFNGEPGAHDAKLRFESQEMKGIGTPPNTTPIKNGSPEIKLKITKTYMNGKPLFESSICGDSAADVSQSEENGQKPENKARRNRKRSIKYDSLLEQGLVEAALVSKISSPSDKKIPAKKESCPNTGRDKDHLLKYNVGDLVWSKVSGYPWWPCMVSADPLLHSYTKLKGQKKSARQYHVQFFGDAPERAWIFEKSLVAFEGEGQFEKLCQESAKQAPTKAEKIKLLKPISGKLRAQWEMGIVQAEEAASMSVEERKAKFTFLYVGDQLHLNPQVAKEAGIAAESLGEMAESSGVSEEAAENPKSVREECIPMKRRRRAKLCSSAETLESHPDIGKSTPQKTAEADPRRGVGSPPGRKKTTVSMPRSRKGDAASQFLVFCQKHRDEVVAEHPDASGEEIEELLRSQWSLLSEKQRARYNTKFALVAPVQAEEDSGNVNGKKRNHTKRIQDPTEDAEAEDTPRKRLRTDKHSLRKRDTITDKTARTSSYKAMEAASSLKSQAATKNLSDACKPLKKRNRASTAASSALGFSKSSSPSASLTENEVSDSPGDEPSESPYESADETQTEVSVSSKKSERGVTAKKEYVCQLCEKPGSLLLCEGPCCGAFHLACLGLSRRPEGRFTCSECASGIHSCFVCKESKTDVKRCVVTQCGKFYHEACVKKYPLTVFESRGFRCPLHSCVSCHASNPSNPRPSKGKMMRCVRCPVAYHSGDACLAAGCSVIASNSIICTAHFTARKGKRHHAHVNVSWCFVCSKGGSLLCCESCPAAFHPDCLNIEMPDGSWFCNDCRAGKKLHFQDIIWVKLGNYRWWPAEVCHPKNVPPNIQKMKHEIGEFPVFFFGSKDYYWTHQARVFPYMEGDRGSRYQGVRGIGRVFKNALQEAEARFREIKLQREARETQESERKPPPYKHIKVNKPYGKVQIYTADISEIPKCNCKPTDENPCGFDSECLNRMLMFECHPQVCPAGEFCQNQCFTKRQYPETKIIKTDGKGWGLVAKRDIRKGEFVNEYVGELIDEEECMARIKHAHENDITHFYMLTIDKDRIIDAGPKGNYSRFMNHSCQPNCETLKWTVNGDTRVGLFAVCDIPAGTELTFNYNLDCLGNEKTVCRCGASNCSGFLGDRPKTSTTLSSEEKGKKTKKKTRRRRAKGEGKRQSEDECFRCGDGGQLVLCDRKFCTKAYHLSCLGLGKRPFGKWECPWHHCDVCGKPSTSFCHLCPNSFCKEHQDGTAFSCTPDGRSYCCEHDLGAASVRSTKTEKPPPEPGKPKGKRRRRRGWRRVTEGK
# Albumin = Albumin (Bos taurus, UniProt P02769); assay: Counterscreen for inhibitors of T-cell receptor (TCR)-CD3 interaction: Fluorescence-based biochemical high throughput dose response assay to identify inhibitors of T-cell receptor (TCR)-CD3 interaction using a TAMRA-labeled BSA probe.; format: functional
# [8] = molecular target: Intestinal-type alkaline phosphatase (Homo sapiens, UniProt P09923); assay: inhibition of human intestinal alkaline phosphatase – biochemical, dose response (AID 488876); format: functional
# HEK293 [9] = assay: cells; format: functional, cell-based; settings: Homo sapiens
# [10] = alpha-synuclein stem-loop luciferase translation blockers – H4 neuroglioma cells, luminescence, confirmation (AID 1988); format: functional, cell-based
# HEK293 [11] = assay: cells; format: functional, cell-based; settings: Homo sapiens; remark: listed apart in the source
# [12] = molecular target: Luciferin 4-monooxygenase (Photinus pyralis, UniProt P08659); assay: inhibition of purified Photinus pyralis luciferase – biochemical, luminescence, dose response (AID 1891)
# HEK293 [13] = assay: NOD2 signaling inhibitors in MDP-stimulated cells, cell-based, uHTS, luminescence (AID 2001); format: functional; settings: Homo sapiens
# HEK293 [14] = assay: cells; format: functional, cell-based; settings: Homo sapiens; remark: listed apart in the source
# [15] = Luminescence Cell-Based Dose Response HTS to Identify Inhibitors of 5'UTR Stem-Loop Driven Prion Protein mRNA Translation in H4 Neuroglioblastoma Cells. [Related pubchem assays: 1827 (Project Summary), 1813 (Primary HTS)]; format: functional
# HEK293 [16] = assay: inhibition of NOD1-driven NF-kB reporter – cell-based, luminescence, uHTS, primary screen (AID 1578); format: functional; settings: Homo sapiens
# [17] = Luminescence Cell-Based Dose Confirmation HTS to Identify Inhibitors of Platelet Dense Granule Release. [Related pubchem assays: 1663 (Primary HTS), 1678 (Summary of Project)]; format: functional
# [18] = luciferase reporter signal suppression in cells – H4 neuroglioma cells, luminescence, dose response (AID 1990); format: functional, cell-based
# [19] = molecular target: Nucleotide-binding oligomerization domain-containing protein 2 (Homo sapiens, UniProt Q9HC29); assay: inhibition of NOD2-driven NF-kB reporter – cell-based, luminescence, uHTS, HEK293 (AID 1566); format: functional
# [20] = molecular target: Alkaline phosphatase, placental type (Homo sapiens, UniProt P05187); assay: human placental alkaline phosphatase inhibition – biochemical, luminescence, confirmation (AID 1512); format: functional
# [21] = molecular target: T3, Alkaline phosphatase, tissue-nonspecific isozyme; assay: potency against alkaline phosphatase TNAP – biochemical, luminescent, dose response, SAR follow-up (AID 1056)
# [22] = molecular target: Dual specificity tyrosine-phosphorylation-regulated kinase 1A (Rattus norvegicus, UniProt Q63470); format: biochemical, Homo sapiens
# [23] = molecular target: T5, RNA-binding protein pos-1 (Caenorhabditis elegans, UniProt G5EF15); assay: disruptors of C. elegans POS-1 RNA interaction – biochemical, fluorescence polarization, dose response (AID 1964);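 further: purified POS-1 fused to maltose binding protein made in E. coli; potency of compounds blocking POS-1 binding to fluorescent RNA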
# T5 sequence (G5EF15 whole entry): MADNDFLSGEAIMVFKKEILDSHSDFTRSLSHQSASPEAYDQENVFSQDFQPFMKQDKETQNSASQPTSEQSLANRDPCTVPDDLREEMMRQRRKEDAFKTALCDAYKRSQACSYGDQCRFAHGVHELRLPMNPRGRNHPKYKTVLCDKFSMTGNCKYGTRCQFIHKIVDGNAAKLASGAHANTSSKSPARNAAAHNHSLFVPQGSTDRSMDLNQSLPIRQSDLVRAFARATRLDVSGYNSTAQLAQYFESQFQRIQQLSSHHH
# [24] = molecular target: T6, Zinc finger protein mex-5 (Caenorhabditis elegans, UniProt Q9XUB2); assay: potency of MEX-5 RNA-binding blockers – biochemical, C. elegans, fluorescence polarization, dose response (AID 1960)
# T6 sequence (Q9XUB2 whole entry): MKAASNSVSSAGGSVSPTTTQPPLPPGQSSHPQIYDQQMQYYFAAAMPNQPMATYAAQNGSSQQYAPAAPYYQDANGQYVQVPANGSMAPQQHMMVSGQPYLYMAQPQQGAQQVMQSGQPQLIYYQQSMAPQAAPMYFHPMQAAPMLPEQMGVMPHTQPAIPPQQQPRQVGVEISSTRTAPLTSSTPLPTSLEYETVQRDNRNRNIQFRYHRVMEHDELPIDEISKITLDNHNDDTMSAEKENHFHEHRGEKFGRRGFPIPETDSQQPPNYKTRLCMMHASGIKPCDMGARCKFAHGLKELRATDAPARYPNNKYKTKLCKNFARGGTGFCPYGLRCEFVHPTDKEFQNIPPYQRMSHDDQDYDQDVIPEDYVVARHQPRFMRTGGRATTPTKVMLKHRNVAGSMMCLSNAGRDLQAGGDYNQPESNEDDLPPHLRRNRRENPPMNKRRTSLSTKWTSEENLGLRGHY
# [25] = molecular target: Glucose-6-phosphate 1-dehydrogenase (Homo sapiens, UniProt P11413); assay: inhibition of Homo sapiens G6PD, dose series – biochemical, fluorescence, selectivity assay for P. falciparum G6PD inhibitor project, dose response (AID 504792); format: functional
# Sequence of Glucose-6-phosphate 1-dehydrogenase (P11413 whole entry): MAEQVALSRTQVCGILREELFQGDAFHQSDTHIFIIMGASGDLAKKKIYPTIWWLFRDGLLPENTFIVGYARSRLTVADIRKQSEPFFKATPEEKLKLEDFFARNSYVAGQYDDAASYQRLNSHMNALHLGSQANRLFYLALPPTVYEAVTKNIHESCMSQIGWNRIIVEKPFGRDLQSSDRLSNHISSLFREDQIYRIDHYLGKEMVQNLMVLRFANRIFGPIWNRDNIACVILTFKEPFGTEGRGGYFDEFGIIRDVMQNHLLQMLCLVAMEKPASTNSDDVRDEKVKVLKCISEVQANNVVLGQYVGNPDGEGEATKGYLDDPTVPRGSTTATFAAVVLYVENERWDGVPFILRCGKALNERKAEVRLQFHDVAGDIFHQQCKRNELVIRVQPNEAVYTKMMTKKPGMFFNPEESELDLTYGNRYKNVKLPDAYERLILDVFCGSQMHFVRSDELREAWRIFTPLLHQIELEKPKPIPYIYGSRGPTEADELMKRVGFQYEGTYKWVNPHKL
# T1 sequence (P41143 whole entry): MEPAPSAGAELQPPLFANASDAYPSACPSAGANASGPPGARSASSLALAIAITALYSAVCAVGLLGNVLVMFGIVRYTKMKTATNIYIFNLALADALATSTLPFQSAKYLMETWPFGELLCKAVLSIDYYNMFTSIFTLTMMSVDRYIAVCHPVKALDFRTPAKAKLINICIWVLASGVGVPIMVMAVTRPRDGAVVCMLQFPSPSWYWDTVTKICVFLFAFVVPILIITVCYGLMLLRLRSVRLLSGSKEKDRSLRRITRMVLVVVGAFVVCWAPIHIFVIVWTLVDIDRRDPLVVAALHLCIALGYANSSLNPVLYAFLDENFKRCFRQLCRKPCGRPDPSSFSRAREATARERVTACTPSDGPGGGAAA
# Sequence of Large T antigen (P03070 whole entry): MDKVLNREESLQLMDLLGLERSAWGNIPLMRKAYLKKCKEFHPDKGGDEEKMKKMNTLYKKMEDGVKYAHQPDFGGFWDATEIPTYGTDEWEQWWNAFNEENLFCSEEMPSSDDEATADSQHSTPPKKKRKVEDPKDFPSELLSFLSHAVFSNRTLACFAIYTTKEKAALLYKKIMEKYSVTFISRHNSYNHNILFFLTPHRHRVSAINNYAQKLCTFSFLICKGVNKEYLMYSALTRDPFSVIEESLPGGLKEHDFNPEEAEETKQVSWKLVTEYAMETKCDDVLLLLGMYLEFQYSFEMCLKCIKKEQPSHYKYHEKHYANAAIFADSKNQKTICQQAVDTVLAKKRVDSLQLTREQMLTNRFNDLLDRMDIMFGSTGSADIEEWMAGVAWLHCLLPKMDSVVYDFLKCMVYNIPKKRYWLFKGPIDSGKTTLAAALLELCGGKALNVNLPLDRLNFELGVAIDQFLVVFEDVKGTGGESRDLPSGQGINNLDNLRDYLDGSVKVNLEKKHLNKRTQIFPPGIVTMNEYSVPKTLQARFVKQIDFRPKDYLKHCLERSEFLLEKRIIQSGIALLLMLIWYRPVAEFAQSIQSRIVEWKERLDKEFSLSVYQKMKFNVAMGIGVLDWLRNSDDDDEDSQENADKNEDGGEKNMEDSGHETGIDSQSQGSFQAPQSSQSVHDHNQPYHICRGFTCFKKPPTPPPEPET
# T2 sequence (P41145 whole entry): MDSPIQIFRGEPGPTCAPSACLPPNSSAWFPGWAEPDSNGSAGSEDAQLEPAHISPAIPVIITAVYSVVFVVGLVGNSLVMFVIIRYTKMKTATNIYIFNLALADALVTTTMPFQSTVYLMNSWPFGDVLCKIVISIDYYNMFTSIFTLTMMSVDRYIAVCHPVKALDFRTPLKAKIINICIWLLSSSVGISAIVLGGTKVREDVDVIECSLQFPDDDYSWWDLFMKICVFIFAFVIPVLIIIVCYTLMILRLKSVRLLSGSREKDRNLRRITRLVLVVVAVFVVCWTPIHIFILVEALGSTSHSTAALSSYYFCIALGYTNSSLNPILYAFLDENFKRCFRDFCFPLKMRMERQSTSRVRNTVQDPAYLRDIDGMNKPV
# Sequence of Intestinal-type alkaline phosphatase (Homo sapiens, UniProt P09923) (P09923 whole entry): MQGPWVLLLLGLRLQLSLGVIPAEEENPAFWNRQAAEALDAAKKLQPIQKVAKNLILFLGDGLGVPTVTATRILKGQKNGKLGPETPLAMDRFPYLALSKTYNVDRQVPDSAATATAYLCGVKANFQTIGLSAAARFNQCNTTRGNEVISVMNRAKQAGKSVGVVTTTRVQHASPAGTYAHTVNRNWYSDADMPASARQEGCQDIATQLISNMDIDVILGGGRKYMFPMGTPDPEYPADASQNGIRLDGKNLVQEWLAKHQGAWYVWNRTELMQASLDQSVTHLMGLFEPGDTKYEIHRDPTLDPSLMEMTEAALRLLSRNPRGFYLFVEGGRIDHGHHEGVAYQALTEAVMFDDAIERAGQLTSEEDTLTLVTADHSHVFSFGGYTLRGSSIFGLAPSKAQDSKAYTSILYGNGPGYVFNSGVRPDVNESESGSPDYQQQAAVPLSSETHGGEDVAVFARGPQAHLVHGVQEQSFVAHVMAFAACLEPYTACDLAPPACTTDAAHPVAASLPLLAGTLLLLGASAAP
# Sequence of Nucleotide-binding oligomerization domain-containing protein 2 (Q9HC29 whole entry, the tested form may be a part): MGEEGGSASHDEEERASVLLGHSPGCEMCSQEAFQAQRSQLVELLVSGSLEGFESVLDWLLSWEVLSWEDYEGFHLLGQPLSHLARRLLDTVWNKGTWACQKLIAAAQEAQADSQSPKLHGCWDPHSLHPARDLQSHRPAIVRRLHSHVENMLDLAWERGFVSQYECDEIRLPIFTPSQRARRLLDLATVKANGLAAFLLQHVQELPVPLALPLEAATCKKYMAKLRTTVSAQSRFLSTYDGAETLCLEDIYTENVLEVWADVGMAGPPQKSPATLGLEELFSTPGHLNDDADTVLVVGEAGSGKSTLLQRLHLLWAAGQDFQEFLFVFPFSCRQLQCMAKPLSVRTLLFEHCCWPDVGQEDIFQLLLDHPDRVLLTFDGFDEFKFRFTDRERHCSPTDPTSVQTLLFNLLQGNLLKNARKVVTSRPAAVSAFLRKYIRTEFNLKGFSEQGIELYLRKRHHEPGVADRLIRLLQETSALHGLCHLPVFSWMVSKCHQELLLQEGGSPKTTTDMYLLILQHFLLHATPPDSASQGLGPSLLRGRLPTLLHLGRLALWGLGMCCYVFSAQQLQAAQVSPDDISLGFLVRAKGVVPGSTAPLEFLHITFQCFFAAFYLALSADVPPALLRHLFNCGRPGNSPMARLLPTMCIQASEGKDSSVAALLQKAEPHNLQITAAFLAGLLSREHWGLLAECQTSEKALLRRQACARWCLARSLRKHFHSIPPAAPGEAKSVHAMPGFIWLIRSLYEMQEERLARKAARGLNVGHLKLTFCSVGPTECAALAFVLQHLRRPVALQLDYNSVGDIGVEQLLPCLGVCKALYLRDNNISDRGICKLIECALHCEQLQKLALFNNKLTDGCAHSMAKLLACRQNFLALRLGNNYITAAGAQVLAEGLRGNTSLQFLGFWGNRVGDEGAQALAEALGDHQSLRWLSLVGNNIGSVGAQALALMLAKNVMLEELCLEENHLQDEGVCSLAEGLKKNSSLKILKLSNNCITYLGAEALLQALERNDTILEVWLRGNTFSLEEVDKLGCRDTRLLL
# Sequence of Luciferin 4-monooxygenase (P08659 whole entry): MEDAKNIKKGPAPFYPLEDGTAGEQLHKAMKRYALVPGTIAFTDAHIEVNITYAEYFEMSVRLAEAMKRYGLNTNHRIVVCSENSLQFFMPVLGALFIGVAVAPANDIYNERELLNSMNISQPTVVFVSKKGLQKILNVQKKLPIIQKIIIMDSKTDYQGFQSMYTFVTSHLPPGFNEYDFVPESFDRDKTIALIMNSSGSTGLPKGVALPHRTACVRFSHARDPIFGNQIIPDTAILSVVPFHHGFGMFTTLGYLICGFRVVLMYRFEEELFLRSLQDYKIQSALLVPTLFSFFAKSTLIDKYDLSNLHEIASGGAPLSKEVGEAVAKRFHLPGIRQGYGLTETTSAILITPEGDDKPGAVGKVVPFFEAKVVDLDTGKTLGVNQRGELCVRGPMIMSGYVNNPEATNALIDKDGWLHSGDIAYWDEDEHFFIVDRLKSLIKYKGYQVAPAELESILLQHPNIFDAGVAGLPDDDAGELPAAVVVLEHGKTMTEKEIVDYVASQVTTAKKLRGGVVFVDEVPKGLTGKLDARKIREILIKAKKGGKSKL
# Sequence of Albumin (P02769 whole entry): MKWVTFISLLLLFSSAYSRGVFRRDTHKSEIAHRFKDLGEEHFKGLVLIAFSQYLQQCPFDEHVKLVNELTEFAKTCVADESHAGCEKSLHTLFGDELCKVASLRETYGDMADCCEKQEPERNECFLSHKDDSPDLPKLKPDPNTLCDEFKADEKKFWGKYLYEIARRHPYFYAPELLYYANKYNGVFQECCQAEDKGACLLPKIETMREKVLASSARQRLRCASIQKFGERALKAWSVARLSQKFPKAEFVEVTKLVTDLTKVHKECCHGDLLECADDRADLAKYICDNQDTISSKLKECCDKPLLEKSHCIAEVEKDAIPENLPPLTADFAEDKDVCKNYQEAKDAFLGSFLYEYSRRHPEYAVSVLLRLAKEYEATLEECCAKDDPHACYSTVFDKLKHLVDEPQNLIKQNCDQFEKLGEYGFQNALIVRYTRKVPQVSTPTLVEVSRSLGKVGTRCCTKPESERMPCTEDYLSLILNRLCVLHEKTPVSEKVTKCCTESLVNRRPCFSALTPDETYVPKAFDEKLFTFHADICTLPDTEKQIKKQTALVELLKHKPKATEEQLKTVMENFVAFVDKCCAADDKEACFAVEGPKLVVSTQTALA
smiles,measurement,setting,value
CC(=O)N1N=C(c2cccs2)CC1c1cccc([N+](=O)[O-])c1 (stereo unspecified),EC50,[1],> 32 µM (inactive)
same,IC50,[2],> 32 µM
same,IC50,[3],14.4 µM (active)
same,EC50,Beta-galactosidase,20.4 µM (active)
same,IC50,[4],> 32 µM (inactive)
same,EC50,Mu-type opioid receptor,> 32 µM (inactive)
CN(C)c1ccnc(-c2ccccc2C(F)(F)F)n1,AC50,Cytochrome P450 3A4,inconclusive
O=C(Cc1nnc(NC(=O)c2ccccc2)s1)N/N=C\c1ccc(O)c(O)c1,IC50,[5],24.6 µM (active)
same,IC50,Large T antigen,20.8 µM (active)
same,IC50,[6],> 100 µM (inactive)
same,AC50,[7],5.23 µM (active)
same,IC50,Albumin,> 94.1 µM (inactive)
same,IC50,[8],> 100 µM (inactive)
Cc1cc(/C=N/Nc2ncnc(N)c2[N+](=O)[O-])c(C)n1-c1ccccc1,IC50,HEK293 [9],> 20 µM (inactive)
same,EC50,[10],0.192 µM (active)
same,IC50,HEK293 [11],1.4 µM (active)
same,EC50,[12],1.1 µM (active)
same,IC50,HEK293 [13],6.1 µM (active)
same,IC50,HEK293 [14],> 20 µM (inactive)
same,EC50,[15],< 0.1 µM (active)
same,EC50,HEK293 [16],4.14 µM (active)
same,EC50,[17],3.67 µM (active)
same,EC50,[18],0.171 µM (active)
same,EC50,[19],< 0.31 µM (inactive)
COc1ccc(C(=O)CSc2nc(C)cc(C)n2)cc1,IC50,[20],> 100 µM (inactive)
same,IC50,[21],> 100 µM (inactive)
COc1cc(-c2cc(=O)c3c(O)c(OC)c(OC)c(O)c3o2)ccc1O [ISOTHYMONIN],IC50,Large T antigen,6.77 µM (active)
same,AC50,[22],0.892 µM (active)
same,EC50,[23],48 µM (active)
same,EC50,[24],7.08 µM (inconclusive)
same,IC50,[25],> 80 µM (inactive)
